Laboratory results as given in paper PMC11882969 (Nature Communications, 2025).
“And” between values parts separate entries of the source, which are not always exact repeats. Equal entries are not always repeated.

What was measured:
[1] = target: T1, hCB1 (Homo sapiens, UniProt P21554); assay: Cerep HTRF cAMP inhibition assay, hCB1 CHO-K1; assay type: cell-based; set-up: host or cells: HEK293SL cells, transient PEI transfection
Protocol: (§1) The hCB1/2 CHO-K1 cells (ATCC: CCL-61) are suspended in HBSS buffer (Invitrogen) complemented with 20 mM HEPES (pH 7.4), then distributed in microplates at a density of 5.103 cells/well in the presence of either of the following: HBSS (basal control), the reference agonist (stimulated control) or the test compounds. […] Following 30 min incubation at 37 °C, the cells are lysed, and the fluorescence acceptor (D2-labeled cAMP) and fluorescence donor (anti-cAMP antibody labeled with europium cryptate) are added. […] Each measurement was done in triplicate.

[2] = target: CB1 (rCB1) (Rattus norvegicus, UniProt P20272); assay: Radioligand competition binding, [3H]-CP-55,940, rat brain membranes; details: rCB1
[3] = target: T1, hCB1; assay: DiscoverX PathHunter β-arrestin-2 recruitment; assay type: cell-based; details: individual replicates;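 also: CHO-K1 cells expressing hCB1, agonist mode, compound exposure with 1% vehicle, chemiluminescence read-out of the β-arrestin-2 recruitment signal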
[4] = target: T2, hCB2 (Homo sapiens, UniProt P34972); assay: TRUPATH BRET2 GoA dissociation, HEK293T; assay type: cell-based; set-up: expressed in transfected cells; host or cells: HEK293T cells (ATCC: CRL-3216), transient co-transfection; details: Log[drug], replicate columns
[5] = target: T2, hCB2; assay: Cerep HTRF cAMP inhibition assay, hCB2 CHO-K1; assay type: cell-based; set-up: host or cells: HEK293SL cells, transient PEI transfection; details: for functional response, concentration-response point (FigS7d): replicate columns;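 as to all read-outs here: compounds incubated 30 min at 37 °C with hCB2 CHO-K1 cells, cAMP detected by HTRF, HBSS as basal and reference agonist as stimulated control, run in triplicate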
Protocol: as §1

[6] = target: T1, hCB1; assay: Tango β-arrestin-2 recruitment, HTLA cells, CB1R; assay type: cell-based; set-up: expressed in transfected cells; host or cells: HTLA cells (gift of R. Axel), transient transfection; details: Log[drug]
[7] = target: T2, hCB2; assay: Tango β-arrestin-2 recruitment, HTLA cells, CB2R; assay type: cell-based; set-up: expressed in transfected cells; host or cells: HEK293 cells stably expressing human CB2R (Laboratory of Ken Mackie); details: hCB2
Protocol: The Tango β-arrestin-2 recruitment assays were performed as described[83]. In brief, HTLA cells (a gift from the laboratory of R. Axel) were transiently transfected with human CB1R or CB2R Tango DNA construct overnight in DMEM supplemented with 10 % FBS, 100 µg ml−1 streptomycin and 100 U ml−1 penicillin. The transfected cells were then plated into poly-L-lysine-coated 384-well white clear-bottom cell culture plates in DMEM containing 1% dialysed FBS at a density of 10,000–15,000 cells per well. After incubation for 6 h, the plates were added with drug solutions prepared in DMEM containing 1% dialysed FBS for overnight incubation. On the day of assay, medium and drug solutions were removed and 20 µl per well of BrightGlo reagent (Promega) was added. The plates were further incubated for 20 min at room temperature and counted using the Wallac TriLux Microbeta counter (PerkinElmer). The results were analysed using GraphPad Prism 9. Each experiment was performed in triplicate and functional IC50 values were determined from the mean of three independent experiments.

T2 sequence (P34972 whole entry): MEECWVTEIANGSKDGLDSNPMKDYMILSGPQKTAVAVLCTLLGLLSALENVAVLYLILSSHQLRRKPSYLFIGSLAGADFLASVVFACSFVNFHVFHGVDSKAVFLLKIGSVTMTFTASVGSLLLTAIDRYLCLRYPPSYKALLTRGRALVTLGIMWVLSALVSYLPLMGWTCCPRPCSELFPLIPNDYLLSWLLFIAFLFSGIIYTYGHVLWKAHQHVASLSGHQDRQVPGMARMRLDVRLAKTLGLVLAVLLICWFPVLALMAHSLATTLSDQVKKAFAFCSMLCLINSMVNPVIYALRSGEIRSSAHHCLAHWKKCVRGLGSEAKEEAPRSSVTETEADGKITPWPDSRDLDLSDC
T1 sequence (P21554 whole entry): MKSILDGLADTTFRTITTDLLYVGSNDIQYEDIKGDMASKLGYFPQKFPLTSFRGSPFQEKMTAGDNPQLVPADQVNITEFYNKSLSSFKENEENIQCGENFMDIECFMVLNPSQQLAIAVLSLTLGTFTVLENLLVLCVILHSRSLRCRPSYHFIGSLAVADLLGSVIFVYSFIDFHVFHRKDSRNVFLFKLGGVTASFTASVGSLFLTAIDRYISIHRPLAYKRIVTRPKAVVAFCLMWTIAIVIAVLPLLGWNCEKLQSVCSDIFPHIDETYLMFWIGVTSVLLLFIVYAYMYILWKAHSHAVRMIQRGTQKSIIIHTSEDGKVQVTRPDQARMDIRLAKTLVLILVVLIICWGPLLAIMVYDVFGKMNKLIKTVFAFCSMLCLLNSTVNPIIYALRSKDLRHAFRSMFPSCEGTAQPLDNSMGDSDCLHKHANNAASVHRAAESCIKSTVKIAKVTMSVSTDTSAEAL
CB1 (rCB1), sequence (P20272 whole entry): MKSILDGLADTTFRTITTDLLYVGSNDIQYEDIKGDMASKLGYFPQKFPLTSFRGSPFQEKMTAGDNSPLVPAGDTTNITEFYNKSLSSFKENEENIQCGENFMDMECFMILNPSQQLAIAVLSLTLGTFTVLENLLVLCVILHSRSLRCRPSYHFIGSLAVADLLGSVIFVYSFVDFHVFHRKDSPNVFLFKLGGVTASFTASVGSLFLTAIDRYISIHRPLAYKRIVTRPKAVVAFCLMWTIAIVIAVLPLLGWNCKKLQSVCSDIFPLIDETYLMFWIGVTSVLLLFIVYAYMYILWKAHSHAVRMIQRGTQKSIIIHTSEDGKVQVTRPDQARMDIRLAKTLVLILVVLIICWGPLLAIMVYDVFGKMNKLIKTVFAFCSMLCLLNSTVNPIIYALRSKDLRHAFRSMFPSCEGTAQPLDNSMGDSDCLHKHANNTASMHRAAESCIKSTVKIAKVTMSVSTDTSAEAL

## Cc1cc(C(=O)N2CC3(CCC3)C2C2CCCO2)nn1-c1cccc(C(F)(F)F)c1 (centres unmarked) [‘3737]
[1]; CHO-K1
  Emax: 99%
[1]; hCB1
  Cerep cAMP pEC50: 6.5 [6.0 – 6.8]
  EC50: 326 nM
[2]
  pKi [95% CI]: 6.76 [6.5 – 7.03]
[3]; log[M] = -5
  response at log[M] -5 (FigS4f): 2.937 and 3.369
[3]; log[M] = -5.47712
  response at log[M] -5.47712 (FigS4f): 2.132 and 1.959
[3]; log[M] = -5.95424
  response at log[M] -5.95424 (FigS4f): 0.8089 and 2.3908
[3]; log[M] = -6.43136
  response at log[M] -6.43136 (FigS4f): 0.2049 and 1.2691
[3]; log[M] = -6.90849
  response at log[M] -6.90849 (FigS4f): -0.5141 and 0.32
[3]; log[M] = -7.38561
  response at log[M] -7.38561 (FigS4f): 0.003595 and 0.06112
[3]; log[M] = -7.86273
  response at log[M] -7.86273 (FigS4f): 0.32 and 0.4063
[3]; log[M] = -8.33985
  response at log[M] -8.33985 (FigS4f): 0.003595 and -0.3703
[3]; log[M] = -8.81697
  response at log[M] -8.81697 (FigS4f): 0.2049 and 0.8664
[3]; log[M] = -9.29409
  response at log[M] -9.29409 (FigS4f): -0.4278 and -0.5141
[4]; M = -5
  functional response, concentration-response point (FigS7e, normalized): 7.15 and 0.08499 and 7.219 and 7.788 and 7.891 and 6.738 and 8.045 and 7.095 and 12.8638 and 12.2484 and 11.5588 and 11.0027
[4]; M = -5.52
  functional response, concentration-response point (FigS7e, normalized): 5.302 and 6.612 and 7.12 and 7.029 and 6.875 and 5.885 and 5.894 and 6.474 and 7.41 and 9.531 and 8.971 and 8.263
[4]; M = -6
  functional response, concentration-response point (FigS7e, normalized): 1.28 and 2.3503 and 2.331 and 3.337 and 2.385 and 1.616 and 1.676 and 1.052 and 3.161 and 3.087 and 4.085 and 2.086
[4]; M = -6.52
  functional response, concentration-response point (FigS7e, normalized): 0.8173 and 0.5745 and 0.009098 and 0.9653 and 0.9374 and 0.7056 and 0.8258 and 0.7943 and 1.033 and 1.163 and 0.8851 and 1.056
[4]; M = -7
  functional response, concentration-response point (FigS7e, normalized): 0.2747 and 0.06981 and 0.08878 and 0.8059 and -0.06126 and 0.2392 and 0.2936 and 0.4538 and 0.7999 and 0.4069 and 0.5552 and 0.6998
[4]; M = -7.52
  functional response, concentration-response point (FigS7e, normalized): 0.1912 and 0.08499 and -0.09335 and 0.658 and 0.6598 and 0.9202 and 0.07323 and 0.6226 and 0.2957 and 0.8814 and 0.5663 and 0.5329
[4]; M = -8
  functional response, concentration-response point (FigS7e, normalized): 0.324 and -0.4159 and -0.002285 and 0.1419 and 0.1305 and 0.7285 and 0.8 and 0.368 and 0.355 and 0.3476 and 0.5886 and 0.8221
[4]; M = -8.52
  functional response, concentration-response point (FigS7e, normalized): -0.4237 and 0.0337 and -0.52 and -0.4863 and 0.2451 and -0.1507 and 1.084 and 0.6009 and 0.6985 and 0.3222 and -0.007056 and 0.3034
[4]; M = -12
  functional response, concentration-response point (FigS7e, normalized): 0.3611 and 0.2552 and -0.6451 and 0.02889
[5]; CHO-K1, hCB2
  Emax: 45%
[5]; Concentration [M] 1e-12
  functional response, concentration-response point (FigS7d): -30 and 18.5 and 4.6
[5]; Concentration [M] 1e-11
  functional response, concentration-response point (FigS7d): 15.9 and 16.3 and 22.7
[5]; Concentration [M] 1e-10
  functional response, concentration-response point (FigS7d): 3.3 and 8.5 and 15.6
[5]; Concentration [M] 1e-9
  functional response, concentration-response point (FigS7d): 40.4 and -11.1 and 23.4
[5]; Concentration [M] 1e-8
  functional response, concentration-response point (FigS7d): 41.2 and 37.3 and 34.7
[5]; Concentration [M] 1e-7
  functional response, concentration-response point (FigS7d): 47.6 and 60.7 and 69.2
[5]; Concentration [M] 1e-6
  functional response, concentration-response point (FigS7d): 52.3 and 67.9 and 43.7
[5]; Concentration [M] 1e-5
  functional response, concentration-response point (FigS7d): 46.2 and 40.4 and 47.6
[5]; hCB2
  Cerep cAMP pEC50: 8.4 [7.7 – 12.5]
  EC50: 4.3 nM
[6]; M = -4.52
  response, replicate values of concentration-response curve (FigS7f): 16.1787 and -30.1888 and -21.8736 and -37.3037 and -30.7086 and -43.6201 and -17.4903 and -7.002 and -28.2206 and 69.1202 and 86.7632
[6]; M = -5
  response, replicate values of concentration-response curve (FigS7f): 10.5 and 4.251 and -11.4922 and -24.0074 and 39.1171 and 4.908 and -25.6442 and 7.194 and 4.112 and 35.3652 and 54.7761
[6]; M = -5, individual replicates
  response at Log[drug], M -5 (FigS4e): 1.604 and 1.6378 and -0.1263 and 3.554 and -1.645 and -3.332 and -3.586 and -3.254 and -1.133 and -2.551 and -0.4401 and -2.2823
[6]; M = -5.52
  response, replicate values of concentration-response curve (FigS7f): -34.1436 and -19.4525 and -21.2651 and -33.8536 and -16.1649 and -20.5572 and -2.476 and -19.5818 and -27.1597 and -5.334 and 9.411
[6]; M = -5.52, individual replicates
  response at Log[drug], M -5.52 (FigS4e): 3.364 and 3.2967 and 3.89 and 5.267 and -2.445 and -3.368 and -3.286 and -3.18 and -0.5298 and -0.4645 and -2.331 and -1.157
[6]; M = -6
  response, replicate values of concentration-response curve (FigS7f): 47.6523 and 12.1859 and 4.34 and -19.6283 and -3.001 and -0.2146 and 2.4245 and 18.2472 and 13.6095 and 40.7237 and 38.7735
[6]; M = -6, individual replicates
  response at Log[drug], M -6 (FigS4e): 5.688 and 6.311 and 5.608 and 6.012 and -1.436 and -3.213 and -2.355 and -0.1315 and -0.6439 and -0.4319 and -1.117 and -0.5542
[6]; M = -6.52
  response, replicate values of concentration-response curve (FigS7f): 26.7755 and 17.066 and 0.4863 and -24.0472 and -30.3238 and -3.24 and 14.0743 and -8.114 and 32.4836 and -15.0304 and -19.0948
[6]; M = -6.52, individual replicates
  response at Log[drug], M -6.52 (FigS4e): 5.756 and 5.2335 and 6.796 and 5.427 and -1.042 and -1.74 and -1.178 and 0.9023 and 2.299 and 1.818 and -0.3423 and 0.155
[6]; M = -7
  response, replicate values of concentration-response curve (FigS7f): 34.9133 and -3.95 and -16.1188 and -35.3 and 25.4625 and -10.8968 and -21.6834 and 6.2943 and 0.9695 and -12.3146 and 7.534
[6]; M = -7, individual replicates
  response at Log[drug], M -7 (FigS4e): 8.884 and 5.924 and 8.758 and 7.292 and -0.04536 and -0.9069 and -0.4556 and -0.1931 and 0.8804 and 2.804 and 1.011 and 0.1957
[6]; M = -7.52
  response, replicate values of concentration-response curve (FigS7f): -5.053 and -15.3203 and -3.0249 and -6.279 and -50.5337 and -10.2997 and -15.5807 and -8.983 and -20.2588 and 4.854 and 34.2352
[6]; M = -7.52, individual replicates
  response at Log[drug], M -7.52 (FigS4e): 9.415 and 8.198 and 9.343 and 6.627 and -1.362 and -1.444 and -1.617 and 0.25 and 3.66 and 1.117 and 0.375 and 3.994
[6]; M = -8, individual replicates
  response at Log[drug], M -8 (FigS4e): 8.737 and 7.057 and 9.276 and 8.661 and -0.8249 and 2.133 and -0.7879 and -0.8084 and 1.019 and 1.329 and 1.361 and 1.467
[6]; M = -8.52, individual replicates
  response at Log[drug], M -8.52 (FigS4e): 12.5705 and 14.1572 and 15.386 and 12.0363 and 0.2264 and -0.5023 and 0.2681 and 0.2421 and 3.757 and 10.0248 and 2.888 and 3.985
[6]; M = -9
  response, replicate values of concentration-response curve (FigS7f): 8.713
[6]; M = -9, individual replicates
  response at Log[drug], M -9 (FigS4e): 14.7823 and 12.9338 and 10.7167 and 15.0494 and -0.7053 and 1.382 and -0.9032 and 2.064 and 3.902 and 4.367 and 2.588 and 2.216
[6]; M = -9.52
  response, replicate values of concentration-response curve (FigS7f): -15.5865 and 2.109 and -19.0089 and -14.201 and 8.65 and -30.6423 and 15.2767 and -7.75 and 4.87 and -25.5104 and 1.592
[6]; M = -9.52, individual replicates
  response at Log[drug], M -9.52 (FigS4e): 13.1261 and 12.6453 and 12.7896 and 11.1868 and 3.428 and 1.32 and 2.251 and 2.397 and 2.423 and 1.937 and 2.288 and 2.144
[6]; M = -10
  response, replicate values of concentration-response curve (FigS7f): -11.9485 and -4.635 and -5.484 and 10.0562 and 9.379 and -4.05 and 21.9756 and 8.952 and 10.1035 and -36.3186 and 8.518
[6]; M = -10, individual replicates
  response at Log[drug], M -10 (FigS4e): 11.8653 and 11.8119 and 13.3986 and 14.0664 and 1.366 and 1.523 and 1.018 and -1.502 and 5.629 and 3.467 and 5.091 and 7.656
[6]; M = -10.52, individual replicates
  response at Log[drug], M -10.52 (FigS4e): 14.5419 and 16.8873 and 18.068 and 18.8961 and 0.7314 and -0.5544 and 7.931 and 2.309 and 2.226 and 3.798 and 2.154 and 1.523
[6]; M = -11, individual replicates
  response at Log[drug], M -11 (FigS4e): 12.4743 and 12.4476 and 8.323 and 8.772 and 2.428 and 1.528 and 2.267 and 2.496 and 5.774 and 4.76 and 2.712 and 3.85
[6]; M = -11.52, individual replicates
  response at Log[drug], M -11.52 (FigS4e): 6.5336 and 8.19 and 7.298 and 6.6351 and 3.735 and 0.95 and 2.715 and 0.09109 and 2.743 and 1.926 and 0.799 and -0.6593
[6]; M = -12, individual replicates
  response at Log[drug], M -12 (FigS4e): -0.6945 and 1.426 and -1.629 and 0.8975 and 0.8147 and 0.1796 and -0.8095 and -0.1848 and 0.03361 and 0.3025 and -0.05947 and -0.2767
[7]; HTLA, read-out: Tango ß-arrestin recruitment Emax
  Emax: 9%
[7]
  Tango ß-arrestin recruitment pEC50: 5.8 [5.7 – 5.9]
[7]; read-out: Tango ß-arrestin recruitment EC50
  EC50: 1500 nM
